Measured values as given in the NIST ThermoML archive (doi:10.1021/je300590v).

Test: xn = mol fraction of the nth substance listed
Settings: Vibrating tube method

[Ar] [argon] + O=C=O
mass density [kg/m3]
Settings | x2 = 0.9276 | x2 = 0.9605
273.15 K, 1000 kPa, Gas | – | 22.5
273.15 K, 1001 kPa, Gas | 21.2 | –
273.15 K, 2000 kPa, Gas | – | 46.1
273.15 K, 2001 kPa, Gas | 44.2 | –
273.15 K, 3000 kPa, Gas | – | 75.5
273.15 K, 3001 kPa, Gas | 72.9 | –
273.15 K, 3600 kPa, Gas | – | 106.3
273.15 K, 3800 kPa, Gas | 104.5 | –
273.15 K, 4901 kPa, Liquid | – | 893.5
273.15 K, 5001 kPa, Liquid | – | 894.8
273.15 K, 5900 kPa, Liquid | 881.4 | –
273.15 K, 6000 kPa, Liquid | 880.2 | –
273.15 K, 6001 kPa, Liquid | – | 905.7
273.15 K, 7000 kPa, Liquid | – | 915.5
273.15 K, 7001 kPa, Liquid | 886.5 | –
273.15 K, 8001 kPa, Liquid | 898 | 924
273.15 K, 9001 kPa, Liquid | 907.8 | –
273.15 K, 9002 kPa, Liquid | – | 932.1
273.15 K, 10001 kPa, Liquid | 917.3 | –
273.15 K, 10002 kPa, Liquid | – | 939.5
273.15 K, 11001 kPa, Liquid | 925.5 | –
273.15 K, 11002 kPa, Liquid | – | 946.4
273.15 K, 12000 kPa, Liquid | 933.4 | 952.9
273.15 K, 13000 kPa, Liquid | 940.6 | 959.1
273.15 K, 14000 kPa, Liquid | – | 965
273.15 K, 14002 kPa, Liquid | 947.4 | –
273.15 K, 15000 kPa, Liquid | 953.8 | –
273.15 K, 15001 kPa, Liquid | – | 970.6
273.15 K, 16001 kPa, Liquid | 959.9 | 975.9
273.15 K, 17000 kPa, Liquid | 965.7 | –
273.15 K, 17002 kPa, Liquid | – | 981
273.15 K, 18001 kPa, Liquid | 971.2 | 986
273.15 K, 19001 kPa, Liquid | 976.5 | –
273.15 K, 19003 kPa, Liquid | – | 990.8
273.15 K, 20000 kPa, Liquid | 981.5 | –
273.15 K, 20001 kPa, Liquid | – | 995.3
283.15 K, 1001 kPa, Gas | 20.1 | 20.9
283.15 K, 2000 kPa, Gas | 42.2 | 43.1
283.15 K, 3001 kPa, Gas | 68.4 | 69.6
283.15 K, 4000 kPa, Gas | – | 104.2
283.15 K, 4001 kPa, Gas | 101.2 | –
283.15 K, 4701 kPa, Gas | – | 144.6
283.15 K, 5000 kPa, Gas | 151.6 | –
283.15 K, 5010 kPa, Gas | 153 | –
283.15 K, 5060 kPa, Gas | 161.6 | –
283.15 K, 6000 kPa, Liquid | – | 827.6
283.15 K, 7001 kPa, Liquid | – | 844.5
283.15 K, 7301 kPa, Liquid | 801.8 | –
283.15 K, 8001 kPa, Liquid | 816.3 | 859.1
283.15 K, 9001 kPa, Liquid | 833.9 | 871.9
283.15 K, 10001 kPa, Liquid | 848.6 | 883.2
283.15 K, 11001 kPa, Liquid | 861.6 | 893.1
283.15 K, 12001 kPa, Liquid | 873 | 902.4
283.15 K, 13000 kPa, Liquid | – | 910.9
283.15 K, 13002 kPa, Liquid | 883.5 | –
283.15 K, 14000 kPa, Liquid | 892.6 | –
283.15 K, 14001 kPa, Liquid | – | 918.7
283.15 K, 15001 kPa, Liquid | 901.4 | –
283.15 K, 15003 kPa, Liquid | – | 926
283.15 K, 16001 kPa, Liquid | 909.4 | 932.8
283.15 K, 17000 kPa, Liquid | – | 939.4
283.15 K, 17001 kPa, Liquid | 916.9 | –
283.15 K, 18000 kPa, Liquid | 924.1 | 945.6
283.15 K, 19001 kPa, Liquid | 930.8 | –
283.15 K, 19002 kPa, Liquid | – | 951.6
283.15 K, 20001 kPa, Liquid | 937.2 | –
283.15 K, 20003 kPa, Liquid | – | 957.3
293.15 K, 1000 kPa, Gas | 19.9 | –
293.15 K, 1001 kPa, Gas | – | 20.4
293.15 K, 2000 kPa, Gas | – | 41
293.15 K, 2001 kPa, Gas | 40.6 | –
293.15 K, 3000 kPa, Gas | 64.4 | –
293.15 K, 3001 kPa, Gas | – | 65
293.15 K, 4000 kPa, Gas | 92.6 | –
293.15 K, 4001 kPa, Gas | – | 94.2
293.15 K, 5000 kPa, Gas | 128.2 | –
293.15 K, 5001 kPa, Gas | – | 132.6
293.15 K, 6000 kPa, Gas | – | 198
293.15 K, 6001 kPa, Gas | 179 | –
293.15 K, 6601 kPa, Gas | 253.1 | –
293.15 K, 7151 kPa, Liquid | – | 728.4
293.15 K, 8002 kPa, Liquid | – | 765.2
293.15 K, 8201 kPa, Liquid | 680.3 | –
293.15 K, 9001 kPa, Liquid | 726.1 | 790.8
293.15 K, 10001 kPa, Liquid | 760.3 | 811.1
293.15 K, 11001 kPa, Liquid | 785 | 827.5
293.15 K, 12000 kPa, Liquid | – | 841.6
293.15 K, 12002 kPa, Liquid | 804.5 | –
293.15 K, 13000 kPa, Liquid | – | 853.5
293.15 K, 13003 kPa, Liquid | 820.2 | –
293.15 K, 14001 kPa, Liquid | – | 864.3
293.15 K, 14002 kPa, Liquid | 834.1 | –
293.15 K, 15000 kPa, Liquid | 846.1 | –
293.15 K, 15001 kPa, Liquid | – | 874.3
293.15 K, 16001 kPa, Liquid | 857.1 | –
293.15 K, 16002 kPa, Liquid | – | 883.4
293.15 K, 17002 kPa, Liquid | 867.1 | 891.9
293.15 K, 18000 kPa, Liquid | 876.3 | –
293.15 K, 18001 kPa, Liquid | – | 899.7
293.15 K, 19001 kPa, Liquid | 884.9 | 906.9
293.15 K, 20001 kPa, Liquid | 892.9 | 913.8
